Experimental data as given in ChEMBL document CHEMBL3988442, “University of Dundee, Small-Polar-MMV Screening Library” (2021).
“And” between values parts separate entries of the source, which are not always exact repeats. Equal entries are not always repeated.

Legend:
[1] = target: Lysine--tRNA ligase (Plasmodium falciparum (isolate 3D7), UniProt Q8IDJ8); assay: Pf-KRS-1 (Lysyl-RNA Synthetase-1, KRS-1, cytosolic KRS) from Plasmodium falciparum. Inhibitor assay, 384 well plate, luminescence read.; type: functional
Lysine--tRNA ligase, sequence (Q8IDJ8 whole entry): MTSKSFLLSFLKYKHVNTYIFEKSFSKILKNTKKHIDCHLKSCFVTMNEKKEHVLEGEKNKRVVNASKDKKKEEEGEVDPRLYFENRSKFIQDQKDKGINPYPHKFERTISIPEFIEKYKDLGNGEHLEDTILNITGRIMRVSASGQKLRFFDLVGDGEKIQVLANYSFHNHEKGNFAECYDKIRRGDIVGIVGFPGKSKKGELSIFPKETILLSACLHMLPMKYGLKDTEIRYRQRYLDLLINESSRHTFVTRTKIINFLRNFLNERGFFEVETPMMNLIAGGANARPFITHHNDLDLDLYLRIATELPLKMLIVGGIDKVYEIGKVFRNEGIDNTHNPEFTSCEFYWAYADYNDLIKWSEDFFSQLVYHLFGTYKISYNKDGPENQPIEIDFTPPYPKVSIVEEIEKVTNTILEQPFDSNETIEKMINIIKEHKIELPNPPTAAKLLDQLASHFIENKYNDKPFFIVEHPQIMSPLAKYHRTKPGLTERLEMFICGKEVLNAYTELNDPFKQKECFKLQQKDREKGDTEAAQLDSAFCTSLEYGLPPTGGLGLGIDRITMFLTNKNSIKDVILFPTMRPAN

[2] = target: T1, Histidine--tRNA ligase (Trypanosoma cruzi (strain CL Brener), UniProt Q4DA54); assay: Trypanosoma cruzi histidyl tRNA synthetase (Tc-HisRS); type: functional
T1 sequence (Q4DA54 whole entry): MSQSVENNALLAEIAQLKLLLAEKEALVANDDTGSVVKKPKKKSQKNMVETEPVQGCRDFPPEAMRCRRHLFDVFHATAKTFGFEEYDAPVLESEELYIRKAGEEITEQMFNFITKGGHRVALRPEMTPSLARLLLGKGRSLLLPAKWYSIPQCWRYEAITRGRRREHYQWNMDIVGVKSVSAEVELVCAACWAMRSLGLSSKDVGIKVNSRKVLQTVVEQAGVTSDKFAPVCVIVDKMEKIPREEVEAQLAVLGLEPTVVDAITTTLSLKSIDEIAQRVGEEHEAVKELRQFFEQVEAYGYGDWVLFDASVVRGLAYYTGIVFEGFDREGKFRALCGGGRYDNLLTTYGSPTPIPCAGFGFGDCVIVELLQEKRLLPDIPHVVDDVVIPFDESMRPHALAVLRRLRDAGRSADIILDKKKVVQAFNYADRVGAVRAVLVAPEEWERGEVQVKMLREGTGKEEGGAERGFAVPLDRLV

[3] = target: Protein translocase subunit SecA (Escherichia coli (strain K12), UniProt P10408); assay: Assay to Identify E. coli SecA ATPase Inhibitors; type: functional
Protein translocase subunit SecA, sequence (P10408 whole entry): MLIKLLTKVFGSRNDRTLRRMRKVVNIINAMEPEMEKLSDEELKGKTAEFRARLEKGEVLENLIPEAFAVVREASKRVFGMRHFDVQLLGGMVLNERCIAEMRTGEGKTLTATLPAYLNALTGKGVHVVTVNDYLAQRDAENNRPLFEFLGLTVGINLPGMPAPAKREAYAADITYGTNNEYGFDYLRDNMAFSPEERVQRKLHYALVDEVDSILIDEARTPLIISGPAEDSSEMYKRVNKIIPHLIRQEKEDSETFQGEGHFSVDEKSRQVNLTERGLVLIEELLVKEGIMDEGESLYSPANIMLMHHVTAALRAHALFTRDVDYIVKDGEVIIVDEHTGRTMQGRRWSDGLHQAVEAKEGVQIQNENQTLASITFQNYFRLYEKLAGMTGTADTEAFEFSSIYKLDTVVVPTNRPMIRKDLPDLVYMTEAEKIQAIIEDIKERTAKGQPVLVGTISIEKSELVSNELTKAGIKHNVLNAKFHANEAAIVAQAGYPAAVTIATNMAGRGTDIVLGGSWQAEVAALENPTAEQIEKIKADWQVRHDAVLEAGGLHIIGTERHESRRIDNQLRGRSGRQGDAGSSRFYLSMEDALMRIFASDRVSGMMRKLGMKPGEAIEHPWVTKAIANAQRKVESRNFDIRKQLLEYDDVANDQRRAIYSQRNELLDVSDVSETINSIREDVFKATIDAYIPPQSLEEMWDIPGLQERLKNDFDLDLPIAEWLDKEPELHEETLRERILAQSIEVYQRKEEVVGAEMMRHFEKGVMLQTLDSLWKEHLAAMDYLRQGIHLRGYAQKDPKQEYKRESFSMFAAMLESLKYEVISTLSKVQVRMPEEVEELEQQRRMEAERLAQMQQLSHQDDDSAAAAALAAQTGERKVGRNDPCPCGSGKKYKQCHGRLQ

[4] = target: T2, Arginase-2, mitochondrial (Homo sapiens, UniProt P78540); assay: in vitro enzyme assay to detect the production of urea directly proportional to the activity of Arginase II; type: functional
T2 sequence (P78540 whole entry): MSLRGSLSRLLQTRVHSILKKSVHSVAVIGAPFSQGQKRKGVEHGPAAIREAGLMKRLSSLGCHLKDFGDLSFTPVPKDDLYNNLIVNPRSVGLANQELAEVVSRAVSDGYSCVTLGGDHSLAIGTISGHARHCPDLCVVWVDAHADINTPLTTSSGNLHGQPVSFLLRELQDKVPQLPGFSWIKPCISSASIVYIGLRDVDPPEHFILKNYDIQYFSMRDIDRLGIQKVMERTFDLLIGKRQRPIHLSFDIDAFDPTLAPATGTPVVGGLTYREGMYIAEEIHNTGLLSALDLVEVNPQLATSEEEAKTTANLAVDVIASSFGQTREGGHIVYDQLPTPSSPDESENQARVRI

[5] = system: Schistosoma mansoni; assay: High throughput screening of compounds against Schistosoma mansoni motility; type: functional; set-up: dose or concentration left out as unconfirmed
[6] = target: T3, Histidine--tRNA ligase (Leishmania infantum, UniProt A4I591); assay: Leishmania infantum Histidine tRNA synthetase (LdHisRS); type: functional
T3 sequence (A4I591 whole entry): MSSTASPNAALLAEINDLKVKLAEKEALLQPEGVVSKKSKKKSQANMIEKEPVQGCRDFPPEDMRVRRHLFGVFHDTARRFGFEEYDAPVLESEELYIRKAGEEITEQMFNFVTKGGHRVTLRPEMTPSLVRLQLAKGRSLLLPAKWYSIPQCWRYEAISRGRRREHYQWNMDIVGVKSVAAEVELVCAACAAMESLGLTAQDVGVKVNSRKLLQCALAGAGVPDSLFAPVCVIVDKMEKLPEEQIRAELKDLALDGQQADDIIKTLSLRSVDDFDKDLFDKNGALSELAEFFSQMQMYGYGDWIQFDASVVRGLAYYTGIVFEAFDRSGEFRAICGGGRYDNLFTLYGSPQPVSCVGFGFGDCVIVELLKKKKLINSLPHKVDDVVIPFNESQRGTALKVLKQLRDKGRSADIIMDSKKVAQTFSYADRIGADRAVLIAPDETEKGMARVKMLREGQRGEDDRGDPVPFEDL

[7] = target: ClpP1P2 (Mycobacterium tuberculosis (strain ATCC 25618 / H37Rv), UniProt P9WPC3+P9WPC5); assay: in vitro assay to detect presence of AMC directly proportional to the activity of ClpP1P2. GHDDI collaboration.; type: functional
ClpP1P2, sequence (P9WPC5 whole entry): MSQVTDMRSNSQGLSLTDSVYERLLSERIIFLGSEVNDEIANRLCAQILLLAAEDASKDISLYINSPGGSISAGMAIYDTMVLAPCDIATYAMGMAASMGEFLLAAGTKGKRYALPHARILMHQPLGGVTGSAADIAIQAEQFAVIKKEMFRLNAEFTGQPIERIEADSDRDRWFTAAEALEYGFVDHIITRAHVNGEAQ
ClpP1P2, sequence (P9WPC3 whole entry): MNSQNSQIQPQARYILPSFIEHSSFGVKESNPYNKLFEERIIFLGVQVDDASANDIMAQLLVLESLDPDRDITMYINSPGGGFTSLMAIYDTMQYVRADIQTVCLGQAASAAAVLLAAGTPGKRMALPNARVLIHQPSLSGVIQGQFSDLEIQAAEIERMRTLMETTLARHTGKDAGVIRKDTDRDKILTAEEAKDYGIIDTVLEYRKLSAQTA

[8] = target: T4, Ubiquitin-activating enzyme e1, putative (Leishmania donovani (strain BPK282A1), UniProt E9BSI1); assay: Leishmania donovani Ubiquitin Activating Enzyme (LdE1); type: functional
T4 sequence (E9BSI1 whole entry): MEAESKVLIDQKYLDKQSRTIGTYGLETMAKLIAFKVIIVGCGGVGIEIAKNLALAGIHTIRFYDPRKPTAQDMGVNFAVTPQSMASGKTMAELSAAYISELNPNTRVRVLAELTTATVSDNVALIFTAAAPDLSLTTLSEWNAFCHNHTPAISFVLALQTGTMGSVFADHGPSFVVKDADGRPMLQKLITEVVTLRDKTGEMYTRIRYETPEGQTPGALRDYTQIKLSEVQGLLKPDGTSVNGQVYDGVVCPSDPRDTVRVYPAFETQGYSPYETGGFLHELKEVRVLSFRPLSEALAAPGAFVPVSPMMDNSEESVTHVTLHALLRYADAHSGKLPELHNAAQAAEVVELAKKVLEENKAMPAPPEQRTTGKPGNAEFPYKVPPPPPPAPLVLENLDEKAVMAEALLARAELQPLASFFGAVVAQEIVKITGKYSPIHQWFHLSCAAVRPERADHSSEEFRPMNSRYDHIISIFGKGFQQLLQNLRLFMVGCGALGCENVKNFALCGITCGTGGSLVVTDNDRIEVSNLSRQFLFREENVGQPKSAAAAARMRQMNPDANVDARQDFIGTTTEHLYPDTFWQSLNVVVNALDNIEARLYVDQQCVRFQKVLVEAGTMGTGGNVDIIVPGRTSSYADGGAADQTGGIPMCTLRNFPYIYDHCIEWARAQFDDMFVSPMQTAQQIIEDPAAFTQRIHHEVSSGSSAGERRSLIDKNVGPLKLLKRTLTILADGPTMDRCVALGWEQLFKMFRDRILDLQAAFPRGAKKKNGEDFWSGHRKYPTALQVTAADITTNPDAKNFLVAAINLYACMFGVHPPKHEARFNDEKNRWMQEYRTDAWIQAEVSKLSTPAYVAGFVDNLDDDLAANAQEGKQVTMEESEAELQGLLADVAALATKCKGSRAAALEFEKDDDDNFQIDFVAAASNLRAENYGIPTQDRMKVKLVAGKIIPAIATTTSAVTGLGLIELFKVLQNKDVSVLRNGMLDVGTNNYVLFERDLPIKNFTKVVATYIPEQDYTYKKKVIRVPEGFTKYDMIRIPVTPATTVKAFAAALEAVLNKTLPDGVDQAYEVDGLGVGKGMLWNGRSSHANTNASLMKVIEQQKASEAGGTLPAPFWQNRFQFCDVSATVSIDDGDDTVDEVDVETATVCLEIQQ

[9] = target: Chromo domain-containing protein 1 (Saccharomyces cerevisiae (strain ATCC 204508 / S288c) (Baker's yeast), UniProt P32657); assay: ScCHD-1 Enzyme Inhibition Assay; type: functional
Chromo domain-containing protein 1, sequence (P32657 whole entry, the tested form may be a part): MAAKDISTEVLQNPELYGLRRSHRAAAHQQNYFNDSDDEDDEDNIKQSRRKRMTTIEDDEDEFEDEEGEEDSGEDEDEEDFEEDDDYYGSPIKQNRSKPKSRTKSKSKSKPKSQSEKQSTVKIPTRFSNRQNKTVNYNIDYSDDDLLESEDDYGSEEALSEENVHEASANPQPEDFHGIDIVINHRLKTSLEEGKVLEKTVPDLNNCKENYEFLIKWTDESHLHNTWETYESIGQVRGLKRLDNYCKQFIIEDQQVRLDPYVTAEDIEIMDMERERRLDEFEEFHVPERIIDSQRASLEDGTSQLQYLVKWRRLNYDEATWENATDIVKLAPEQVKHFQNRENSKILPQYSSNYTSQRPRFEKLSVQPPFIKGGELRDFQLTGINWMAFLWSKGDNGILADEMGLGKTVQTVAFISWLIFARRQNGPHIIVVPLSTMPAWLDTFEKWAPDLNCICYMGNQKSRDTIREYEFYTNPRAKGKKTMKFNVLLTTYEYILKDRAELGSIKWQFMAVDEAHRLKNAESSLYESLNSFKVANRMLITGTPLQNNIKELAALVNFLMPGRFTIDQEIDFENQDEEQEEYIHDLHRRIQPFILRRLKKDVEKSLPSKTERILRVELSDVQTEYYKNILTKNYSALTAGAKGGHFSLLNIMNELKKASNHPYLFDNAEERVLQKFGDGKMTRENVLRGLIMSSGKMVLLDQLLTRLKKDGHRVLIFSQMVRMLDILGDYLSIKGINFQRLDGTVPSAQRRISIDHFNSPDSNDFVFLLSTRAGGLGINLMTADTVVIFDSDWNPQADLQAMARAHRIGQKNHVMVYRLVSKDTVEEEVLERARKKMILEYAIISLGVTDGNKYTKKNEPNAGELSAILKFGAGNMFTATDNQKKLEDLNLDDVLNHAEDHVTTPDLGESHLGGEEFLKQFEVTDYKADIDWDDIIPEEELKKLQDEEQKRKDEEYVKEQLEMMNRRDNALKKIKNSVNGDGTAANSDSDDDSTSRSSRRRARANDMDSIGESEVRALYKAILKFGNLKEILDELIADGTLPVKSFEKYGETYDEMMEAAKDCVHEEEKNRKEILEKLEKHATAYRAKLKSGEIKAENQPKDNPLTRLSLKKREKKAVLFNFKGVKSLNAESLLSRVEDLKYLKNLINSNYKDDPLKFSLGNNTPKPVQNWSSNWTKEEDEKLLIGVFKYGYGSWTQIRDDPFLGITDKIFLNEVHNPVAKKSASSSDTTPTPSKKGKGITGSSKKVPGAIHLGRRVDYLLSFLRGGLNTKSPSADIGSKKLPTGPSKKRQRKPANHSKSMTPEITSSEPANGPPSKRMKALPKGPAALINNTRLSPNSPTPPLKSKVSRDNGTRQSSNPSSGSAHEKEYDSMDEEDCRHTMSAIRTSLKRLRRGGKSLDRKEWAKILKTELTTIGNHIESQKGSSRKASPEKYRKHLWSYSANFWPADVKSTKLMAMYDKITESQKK

[10] = target: T5, Coenzyme A biosynthesis bifunctional protein CoaBC (Mycobacterium tuberculosis (strain ATCC 25618 / H37Rv), UniProt P9WNZ1); assay: Biomol Green assay for MtCoaBC inhibitor, OD650 read; type: functional
T5 sequence (P9WNZ1 whole entry): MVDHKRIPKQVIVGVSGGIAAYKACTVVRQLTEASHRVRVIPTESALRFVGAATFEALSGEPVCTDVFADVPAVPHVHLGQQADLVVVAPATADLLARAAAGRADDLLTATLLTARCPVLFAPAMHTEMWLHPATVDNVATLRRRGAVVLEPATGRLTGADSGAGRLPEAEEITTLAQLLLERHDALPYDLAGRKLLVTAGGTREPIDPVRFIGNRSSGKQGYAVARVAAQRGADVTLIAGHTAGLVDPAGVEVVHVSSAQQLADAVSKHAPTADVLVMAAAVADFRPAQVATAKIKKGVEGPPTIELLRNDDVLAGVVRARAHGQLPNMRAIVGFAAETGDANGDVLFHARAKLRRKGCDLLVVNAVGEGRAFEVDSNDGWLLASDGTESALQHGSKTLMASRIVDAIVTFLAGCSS

[11] = microbe, parasite or virus in culture; details: Mycobacterium tuberculosis, 96 h, read-out: pIC50 (converted)
[12] = microbe, parasite or virus in culture; details: Mycobacterium tuberculosis, 72 h, read-out: pIC50 (converted)
[13] = target: Polyketide synthase Pks13 (Mycobacterium tuberculosis (strain ATCC 25618 / H37Rv), UniProt I6X8D2); assay: Mycobacterium tuberculosis Polyketide synthase 13 Thioesterase (PKS13); type: functional
Polyketide synthase Pks13, sequence (I6X8D2 whole entry): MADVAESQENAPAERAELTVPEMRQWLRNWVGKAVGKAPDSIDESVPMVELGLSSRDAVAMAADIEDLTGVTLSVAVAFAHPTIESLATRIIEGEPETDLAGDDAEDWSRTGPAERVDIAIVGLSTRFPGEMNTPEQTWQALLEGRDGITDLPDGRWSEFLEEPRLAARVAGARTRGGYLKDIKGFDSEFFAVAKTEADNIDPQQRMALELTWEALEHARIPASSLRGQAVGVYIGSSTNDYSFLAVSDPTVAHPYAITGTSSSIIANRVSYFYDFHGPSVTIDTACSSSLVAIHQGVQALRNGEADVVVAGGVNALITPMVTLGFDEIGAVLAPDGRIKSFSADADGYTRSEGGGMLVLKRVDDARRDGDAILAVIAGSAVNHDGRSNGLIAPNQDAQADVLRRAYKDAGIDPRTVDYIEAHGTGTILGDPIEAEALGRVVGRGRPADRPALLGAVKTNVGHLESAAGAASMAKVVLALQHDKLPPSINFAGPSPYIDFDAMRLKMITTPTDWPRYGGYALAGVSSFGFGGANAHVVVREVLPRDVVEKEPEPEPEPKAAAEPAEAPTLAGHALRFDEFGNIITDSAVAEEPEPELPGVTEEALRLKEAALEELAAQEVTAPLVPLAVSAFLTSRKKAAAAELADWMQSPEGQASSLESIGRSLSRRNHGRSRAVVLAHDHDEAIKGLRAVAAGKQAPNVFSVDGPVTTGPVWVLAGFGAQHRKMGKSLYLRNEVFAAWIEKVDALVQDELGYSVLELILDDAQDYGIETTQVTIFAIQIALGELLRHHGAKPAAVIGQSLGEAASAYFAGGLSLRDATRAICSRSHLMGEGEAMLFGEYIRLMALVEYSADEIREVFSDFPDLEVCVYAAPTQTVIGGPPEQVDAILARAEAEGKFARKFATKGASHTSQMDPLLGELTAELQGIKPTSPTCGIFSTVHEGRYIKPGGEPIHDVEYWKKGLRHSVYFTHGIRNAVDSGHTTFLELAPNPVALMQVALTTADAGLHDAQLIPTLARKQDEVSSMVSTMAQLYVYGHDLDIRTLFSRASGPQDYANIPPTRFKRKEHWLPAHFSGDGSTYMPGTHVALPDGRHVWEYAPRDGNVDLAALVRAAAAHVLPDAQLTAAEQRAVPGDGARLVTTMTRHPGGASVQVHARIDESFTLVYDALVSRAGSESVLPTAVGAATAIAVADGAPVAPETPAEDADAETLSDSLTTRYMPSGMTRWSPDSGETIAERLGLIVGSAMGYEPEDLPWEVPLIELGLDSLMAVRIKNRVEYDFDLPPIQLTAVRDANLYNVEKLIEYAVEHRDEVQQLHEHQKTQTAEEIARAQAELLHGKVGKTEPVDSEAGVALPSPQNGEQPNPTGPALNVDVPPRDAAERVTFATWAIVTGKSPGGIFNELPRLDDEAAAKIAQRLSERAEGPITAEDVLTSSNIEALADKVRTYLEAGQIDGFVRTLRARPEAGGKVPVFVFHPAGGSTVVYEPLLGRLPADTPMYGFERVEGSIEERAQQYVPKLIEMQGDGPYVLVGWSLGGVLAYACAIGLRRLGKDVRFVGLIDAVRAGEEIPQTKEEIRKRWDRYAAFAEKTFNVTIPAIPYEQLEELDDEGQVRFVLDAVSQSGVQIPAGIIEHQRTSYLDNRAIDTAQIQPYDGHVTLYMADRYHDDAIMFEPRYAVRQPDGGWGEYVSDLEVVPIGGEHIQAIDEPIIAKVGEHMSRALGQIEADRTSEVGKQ

SMILES	IC50 [1]	IC50 [2]	IC50 [3]	IC50 [4]	other results
CNc1nc2c(s1)C(c1cccc(Cl)c1Cl)CC(=O)N2 (configuration not stated)	> 50.1 µM	10.4 µM and 11.2 µM	37.8 µM and > 100 µM		
COc1ccccc1Oc1ncccc1CNC(=O)C(C)N1CCCC1 (configuration not stated)				> 100 µM	Percent Effect [5]: 13.35%
CNc1nc2c(s1)C(c1ccccc1Cl)CC(=O)N2 (configuration not stated)	> 50.1 µM	6.72 µM and 7.27 µM	> 100 µM		IC50 [6]: 2.19 µM and 2.57 µM and 2.79 µM and 2.64 µM
CC(C)Oc1ccccc1C1CC(=O)Nc2nc(N3CCOCC3)sc21 (configuration not stated)	> 50.1 µM	3.93 µM and 5.46 µM	41.6 µM and 34.6 µM		IC50 [7]: > 100 µM; IC50 [8]: 86.4 µM and 89.7 µM
CC1(C)OCC(CNC(=O)c2cnn(-c3cc(Cl)ccc3Cl)c2N)O1 (configuration not stated)			> 100 µM		
CNc1nc2c(s1)C(c1ccc(Cl)cc1Cl)CC(=O)N2 (configuration not stated)	> 50.1 µM	10.3 µM and 10.6 µM	> 100 µM		IC50 [6]: 4.56 µM and 3.65 µM
CNc1nc2c(s1)C(c1cccc(F)c1F)CC(=O)N2 (configuration not stated)	> 50.1 µM	22.5 µM and 14.6 µM	93.5 µM and 33.1 µM		IC50 [7]: > 100 µM
O=c1[nH]c2c(c(=O)n1C1CCCCC1)CCC2Nc1ccccc1Cl (configuration not stated)	14 µM			> 100 µM	
Nc1nc2c(s1)C(c1c(F)cccc1Cl)CC(=O)N2 (configuration not stated)	> 50.1 µM	9.65 µM and 7.68 µM	> 100 µM		IC50 [6]: 3.22 µM and 4.42 µM
CC(C)CN1CCC(NC(=O)c2ccc(F)cc2I)CC1				> 100 µM	Percent Effect [5]: 28.14%
COCC(C)NC(=O)c1cn(C(C)(C)C)c2ncccc12 (configuration not stated)			> 100 µM		
CN(CCO)C(=O)c1coc(CN2CCN(c3ccccc3F)CC2)n1				> 100 µM	IC50 [9]: > 29.5 µM
O=C(CO)N1CCC(c2cncc(-c3cccc(Cl)c3)n2)CC1				> 100 µM	IC50 [10]: > 30.2 µM
CCn1cc(CN(C)S(=O)(=O)c2cnn(CC)c2C)c(C)n1			> 100 µM		
CNc1nc2c(s1)C(c1ccc(F)cc1Cl)CC(=O)N2 (configuration not stated)	> 50.1 µM	22.8 µM and 15.7 µM	> 100 µM		
CCNC(=O)Nc1ccc2c(ccn2CC(=O)N(CC)CC)c1			> 100 µM		

SMILES	IC50 [1]	IC50 [2]	IC50 [3]	IC50 [4]	other results
CNc1nc2c(s1)C(c1ccccc1F)CC(=O)N2 (configuration not stated)	> 50.1 µM	5.69 µM and 4.89 µM	> 100 µM and 93.8 µM		IC50 [7]: > 100 µM; IC50 [6]: 2.32 µM and 2.22 µM and 2.27 µM and 2.53 µM
COc1ccc(-c2nc(CN3CC(n4cc(C)cn4)C3)no2)cc1				> 100 µM	IC50 [11]: 39.7 µM; IC50 [12]: 47 µM
CNc1nc2c(s1)C(c1c(Cl)cccc1Cl)CC(=O)N2 (configuration not stated)	> 50.1 µM	21.3 µM and 23 µM	89.4 µM and 43.2 µM		IC50 [6]: 20.8 µM and 17.5 µM
O=C(COc1cccc(Br)c1)N1CCN(c2nccs2)CC1				> 100 µM	IC50 [9]: > 29.5 µM
COCCNC(=O)c1cn(C(C)(C)C)c2ncccc12			> 100 µM		
COc1ccc2c(c1)OCC(CNC(=O)c1ccncc1)C2 (configuration not stated)				> 100 µM	IC50 [9]: > 29.5 µM
CCc1c(C(=O)NCC2CCS(=O)(=O)C2)cnn1-c1ccc(C)cc1 (configuration not stated)			> 100 µM		
COC(=O)Cn1cccc(S(=O)(=O)N2CCC(C)CC2)c1=O				> 100 µM	IC50 [13]: > 100 µM
COCCn1ccc2cc(NC(C)=O)ccc21			> 100 µM		
Cc1ccc2c(ccn2CCC(=O)O)c1			> 100 µM		
COCc1c(C(=O)NC2CCCC2)nnn1-c1ccc(C)cc1			> 100 µM		
CN(C)C(=O)[C@@H]1CCO[C@@H]2CCN(CCc3ccccc3)C[C@@H]21	> 50.1 µM			> 100 µM	
CNc1nc2c(s1)C(c1cc(Cl)ccc1F)CC(=O)N2 (configuration not stated)	> 50.1 µM	19.4 µM and 20.6 µM	> 100 µM		IC50 [7]: > 100 µM
CCCc1c(C(=O)NC2CCCC2)nnn1-c1ccc(OC)cc1			> 100 µM		
COc1ccc(-n2ncc(C(=O)NCC3COC(C)(C)O3)c2N)cc1 (configuration not stated)			> 100 µM		
